The record followed here is patent US20200002665A1 (Heliae Development, LLC, priority 2016, published 2020).

Like-named read-outs stand apart in the source and are kept apart here.

The subject of one assay is Chlorella (HS26) cells. The assay can be described thus: pH drift of cultures suspended in different nitrogen sources (Example 1). In kind it is cell-based. The note with it: after 24 hours, compared to a control; light, shaking 100 RPM; FIG. 10. Here is the method: The Chlorella cultures were supplied with light, and shaking from a shaker table at 100 RPM. The pH drift of each culture was measured after 24 hours and compared to a control.

The subject of assay [1] is Chlorella (HS26). The note with it: pH 7.0. On the procedure: Cultures of Chlorella (HS26) were inoculated at 0.3 g/L in glass column bioreactors at a volume of 700 mL of BG-11 culture media and maintained at a temperature of 27° C. The mixotrophic cultures received aeration at a rate of 1 Liter per minute, an initial batch of 30 g glucose/L, and were supplied 270 micromoles of light using LED lights (LumiGrow, Inc., Emeryville, Calif.). In a first treatment, the culture was supplied with an initial batch of 3 g/L NaNO3 (“Nitrate” treatment), and the culture pH was controlled at a set point of 7.0 by a pH auxostat feed containing 0.75% HCl. […] Samples were taken daily to measure the cell dry weight, nitrogen concentration, and total protein.

The subject of the next assay is Schizochytrium limacinum. The note with it: pH 6.5. From the text: The heterotrophic cultures received aeration at a rate of 1 Liter per minute, and an initial batch of 80 g glycerol/L. In a first treatment, the culture was supplied with an initial batch of 20 g/L monosodium glutamate (“Glutamate” treatment), and the culture pH was controlled at a set point of 6.5 by a pH auxostat feed containing 1% HCl. […] Samples were taken daily to measure the cell dry weight, nitrogen concentration, and total protein. Results are show in FIGS. 30-33.

For assay [2], the system named is Chlorella (HS26). Here is the method: Cultures of Chlorella (HS26) were inoculated at 0.3 g/L in glass column bioreactors at a volume of 700 mL of BG-11 culture media and maintained at a temperature of 27° C. The mixotrophic cultures received aeration at a rate of 1 Liter per minute, an initial batch of 30 g glucose/L, and were supplied 270 micromoles of light using LED lights (LumiGrow, Inc., Emeryville, Calif.). In a first treatment, the culture was supplied with an initial batch of 3 g/L NaNO3 (“Nitrate” treatment), and the culture pH was controlled at a set point of 6.5 by a pH auxostat feed containing 0.50% HCl. In a second treatment, the culture was supplied with an initial batch of 3 g/L NaNO3 (“Nitrates” treatment), and the culture pH was controlled at a set point of 7.5 by a pH auxostat feed containing 0.50% HCl. […] Samples were taken daily to measure the cell dry weight, nitrogen concentration, and total protein.

The subject of another assay is Chlorella cultures. The note with it: 1 g N/L of NH4; mixotrophic, acetic acid as organic carbon source; FIG. 11. From the text:
The Chlorella cultures productivity using either ammonium (NH4) or nitrates (NO3) as the nitrogen source in mixotrophic culture conditions (i.e., supply of light, supply of acetic acid as the organic carbon source) were then compared. The cultures received NH4 at a concentration of 0.13 g N/L, 0.25 g N/L, 0.5 g N/L, or 1 g N/L for the ammonium treatments. The cultures received NO3 at a concentration of 0.25 g N/L or 1 g N/L for the nitrate treatments. Samples were taken to measure cell dry weight at 0, 39, 86, and 161.5 hours.

Assay [3] has as its system Chlorella (HS26). Conditions: for final day (day 4) cell dry weight: FIG. 16. Here is the method: Cultures of Chlorella (HS26) were inoculated at 0.3 g/L in glass column bioreactors at a volume of 700 mL of BG-11 culture media and maintained at a temperature of 27° C. The mixotrophic cultures received an initial batch of 1 g/L NH4Cl, aeration at a rate of 1 Liter per minute, an initial batch of 40 g glucose/L, and were supplied 270 micromoles of light using LED lights (LumiGrow, Inc., Emeryville, Calif.). Treatments were conducted at culture medium pH values of 6.5, 7.0, 7.3, 7.5, 7.8, 8.0, and 8.5. The culture medium pH was controlled with a pH auxostat supplying a titrate of 0.5% NH4OH and 0.75% HCl at the designated set points. Samples were taken daily to measure the cell dry weight, nitrogen concentration, and total protein. Results are show in FIGS. 13-17.

For assay [4], the system named is Chlorella (HS26). Conditions: for total protein content: FIG. 29; for growth (cell dry weight over time): FIG. 26. On the procedure:
Cultures of Chlorella (HS26) were inoculated at 0.3 g/L in glass column bioreactors at a volume of 700 mL of BG-11 culture media and maintained at a temperature of 27° C. The mixotrophic cultures received aeration at a rate of 1 Liter per minute, an initial batch of 30 g glucose/L, and were supplied 270 micromoles of light using LED lights (LumiGrow, Inc., Emeryville, Calif.). In a first treatment, the culture was supplied with an initial batch of 3 g/L NaNO3 (“Nitrate” treatment), and the culture pH was controlled at a set point of 7.0 by a pH auxostat feed containing 0.50% HCl. In a second treatment, the culture was supplied with an initial batch of 3 g/L NaNO3 (“Nitrates” treatment), and the culture pH was controlled at a set point of 8.0 by a pH auxostat feed containing 0.50% HCl. […] Samples were taken daily to measure the cell dry weight, nitrogen concentration, and total protein.

As to `N.N.O=S(=O)(O)O` [ammonium sulfate], the “pH drift of culture” value with Chlorella (HS26) cells is listed as “decreased in culture pH”.

Consider `N` [Ammonia, ammonia], for which the “growth (cell dry weight over time)” value is listed as “better growth than the Nitrate treatment” in the assay on Chlorella (HS26) [1] (1.0 g/L NH4Cl, 0.5% NH4OH feed, versus Nitrate treatment, FIG. 18); “higher resulting growth than the Glutamate treatment” with Schizochytrium limacinum (1.0 g/L NH4Cl, 10% NH4OH feed, heterotrophic, glycerol, FIG. 30); “greatest amount of growth” in the assay on Chlorella (HS26) [2] (Ammonia pH 6.5 treatment, among Ammonia and Nitrate treatments at pH 6.5 and 7.5, FIG. 22); “impaired growth” in the assay on Chlorella (HS26) [3] (culture pH above 7.5, initial 1 g/L NH4Cl, 0.5% NH4OH titrant, FIG. 13); “highest resulting growth” in the assay with Chlorella (HS26) [4] (Ammonia pH 7.0 treatment); “impaired growth” in the assay with Chlorella (HS26) [4] (Ammonia pH 8.0 treatment). The increase in protein in the assay with Chlorella (HS26) [1] (compared to the Nitrate treatment, FIG. 21) is 15%. Also, the “increase in protein yield” value with Schizochytrium limacinum (over the Glutamate treatment, FIG. 33) came out at 20%. The total protein content entry is “more protein than the Nitrate treatments” in the assay on Chlorella (HS26) [2] (Ammonia treatments pH 6.5 and 7.5 versus Nitrate treatments, FIG. 25); “highest resulting protein” in the assay on Chlorella (HS26) [4] (Ammonia culture grown at the higher pH (8.0)); “more total protein than the Nitrate treatments” with Chlorella (HS26) [4] (Ammonia treatments pH 7.0 and 8.0 versus Nitrate treatments). For the same molecule, in the assay on Chlorella cultures, the “growth and productivity (cell dry weight)” value is given as “suffered”. Further, the “total protein on the final day (day 4)” value in the assay on Chlorella (HS26) [3] (culture pH 6.5 to 8.5, particularly above 7.5, FIG. 17) is “increased as the culture pH increased”. Further, the “accumulated protein (total protein content)” value in the assay on Chlorella (HS26) [3] (culture pH above 7.5, FIG. 15) is “increase in accumulated protein”. In addition, the “final day (day 4) cell dry weight” value in the assay on Chlorella (HS26) [3] (culture pH above 7.5) is recorded as “decreased as the culture pH increased”; with Chlorella (HS26) [3] (culture pH of 7.5 and below) it was “substantially similar”.

With `O=[N+]([O-])[O-].[Na+]` [sodium nitrate, reference compound], the “pH drift of culture” value in the assay on Chlorella (HS26) cells is reported as “increased in culture pH”.
